Reference: ChEMBL document CHEMBL1132129, “Stereoselective synthesis of a new muscarinic M3 receptor antagonist, J-104129” (Bioorg Med Chem Lett, 1999)

Target: Muscarinic acetylcholine receptor M3 (Homo sapiens, UniProt P20309)
Experiment: Binding affinity for human cloned Muscarinic M3 receptors

Sequence of Muscarinic acetylcholine receptor M3 (P20309 whole entry): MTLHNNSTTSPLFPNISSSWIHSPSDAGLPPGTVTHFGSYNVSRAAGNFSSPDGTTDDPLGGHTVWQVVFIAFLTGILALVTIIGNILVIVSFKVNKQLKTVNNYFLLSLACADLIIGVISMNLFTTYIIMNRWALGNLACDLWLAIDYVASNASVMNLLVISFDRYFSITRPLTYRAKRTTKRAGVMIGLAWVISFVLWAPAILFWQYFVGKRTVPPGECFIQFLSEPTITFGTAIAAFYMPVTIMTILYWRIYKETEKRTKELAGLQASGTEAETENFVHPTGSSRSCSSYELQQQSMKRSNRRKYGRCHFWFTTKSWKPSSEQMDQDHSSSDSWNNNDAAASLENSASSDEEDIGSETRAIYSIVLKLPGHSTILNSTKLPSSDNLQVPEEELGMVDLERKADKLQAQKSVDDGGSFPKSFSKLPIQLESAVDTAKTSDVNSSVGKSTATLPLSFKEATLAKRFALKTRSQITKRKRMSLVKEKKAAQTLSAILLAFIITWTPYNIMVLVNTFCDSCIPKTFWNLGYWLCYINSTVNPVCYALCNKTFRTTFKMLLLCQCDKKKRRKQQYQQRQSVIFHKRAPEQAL

## CC(C)=CCCN1CCC(NC(=O)[C@](O)(c2ccccc2)C2CCCC2)CC1
  Ki: 4.2 nM
